Values quoted from earlier work as cited in US20220280449A1, “CURCUMINOID COMPOSITIONS” (priority 2018, published 2022).

Test system: Caco-2 cells

COc1cc(/C=C/C(=O)CC(=O)/C=C/c2ccc(O)c(OC)c2)ccc1O [curcumin]
predicted absorption in humans (from correlation of Caco-2 Papp with human absorption): 0-20%
apparent permeability coefficient (Papp value) (in vitro human intestinal cell model (Caco-2)): 0.1 ×10⁻⁶ cm/s
